Structures can show the parent of a compound that is named as a salt.

The experiment has as its target T1, human NHE3 (Homo sapiens, UniProt P48764).
T1 sequence (P48764 26-834): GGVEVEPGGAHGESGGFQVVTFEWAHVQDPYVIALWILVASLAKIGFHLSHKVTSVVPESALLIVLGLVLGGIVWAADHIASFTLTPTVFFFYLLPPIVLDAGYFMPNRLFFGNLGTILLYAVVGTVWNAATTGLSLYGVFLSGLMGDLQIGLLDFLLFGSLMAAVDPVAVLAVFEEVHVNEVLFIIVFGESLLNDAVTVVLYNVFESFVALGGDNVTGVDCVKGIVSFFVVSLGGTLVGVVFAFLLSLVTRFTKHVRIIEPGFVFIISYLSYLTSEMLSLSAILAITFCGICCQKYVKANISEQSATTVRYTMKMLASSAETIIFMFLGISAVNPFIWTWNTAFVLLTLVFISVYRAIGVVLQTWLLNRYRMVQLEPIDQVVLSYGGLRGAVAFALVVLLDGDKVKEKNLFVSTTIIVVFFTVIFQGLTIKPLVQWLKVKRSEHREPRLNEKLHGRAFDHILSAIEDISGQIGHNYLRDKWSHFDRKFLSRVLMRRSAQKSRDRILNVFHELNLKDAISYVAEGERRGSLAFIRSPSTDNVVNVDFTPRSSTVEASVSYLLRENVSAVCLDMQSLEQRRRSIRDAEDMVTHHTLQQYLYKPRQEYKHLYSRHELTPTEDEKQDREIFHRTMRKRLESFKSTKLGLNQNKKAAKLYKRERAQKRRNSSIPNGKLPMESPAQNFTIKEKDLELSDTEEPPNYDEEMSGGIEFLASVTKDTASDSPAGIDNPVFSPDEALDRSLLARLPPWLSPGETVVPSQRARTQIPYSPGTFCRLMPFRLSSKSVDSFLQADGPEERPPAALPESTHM
Description: NHE3 inhibition test (recovery of intracellular pH in cell line stably expressing human NHE3). It counts as cell-based. As to conditions: OK cells deficient in endogenous NHE stably expressing human NHE3; BCECF fluorescence, initial rate of pH recovery; read-out: human NHE3 inhibitory activity IC50. An outline of the steps: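 Opossum kidney cells lacking endogenous NHE, stably expressing human NHE3, loaded with BCECF-AM and acid-loaded by NH4Cl washout. Compound in Na-free buffer, then Na-containing buffer (pH 7.4) added; initial pH-recovery rate by BCECF fluorescence, IC50 versus no-compound recovery.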
With `CN1Cc2c(Cl)cc(Cl)cc2[C@H](c2cccc(-c3cc(OCCOCCOCCOCCNC(=O)NCCCCNC(=O)NCCOCCOCCOCCOc4cc(-c5cccc([C@@H]6CN(C)Cc7c(Cl)cc(Cl)cc76)c5)ncn4)ncn3)c2)C1` [Example 7-31, 1,1′-Butane-1,4-diylbis(3-{2-[2-(2-{2-[(6-{3-[(4S)-6,8-dichloro-2-methyl-1,2,3,4-tetrahydroisoquinolin-4-yl]phenyl}pyrimidin-4-yl)oxy]ethoxy}ethoxy)ethoxy]ethyl}urea) hydrochloride], the IC50 (as a rule, the concentration needed to halve the response being measured) stood at 0.0124 µM.

Take `CN1Cc2c(Cl)cc(Cl)cc2[C@H](c2cccc(-c3cnnc(NCCOCCOCCOCCNC(=O)NCCCCNC(=O)NCCOCCOCCOCCNc4cc(-c5cccc([C@@H]6CN(C)Cc7c(Cl)cc(Cl)cc76)c5)cnn4)c3)c2)C1` [Example 7-32, 1,1′-Butane-1,4-diylbis(3-{2-[2-(2-{2-[(5-{3-[(4S)-6,8-dichloro-2-methyl-1,2,3,4-tetrahydroisoquinolin-4-yl]phenyl}pyridazin-3-yl)amino]ethoxy}ethoxy)ethoxy]ethyl}urea) tetrahydrochloride]: the IC50 was determined as 0.0181 µM.

Regarding `CN1Cc2c(Cl)cc(Cl)cc2[C@H](c2cccc(-c3cn(CCOCCOCCOCCNC(=O)NCCNC(=O)NCCOCCOCCOCCn4cc(-c5cccc([C@@H]6CN(C)Cc7c(Cl)cc(Cl)cc76)c5)nn4)nn3)c2)C1` [Example 7-34, 1,1′-Ethane-1,2-diylbis {3-[2-(2-{2-[2-(4-{3-[(4S)-6,8-dichloro-2-methyl-1,2,3,4-tetrahydroisoquinolin-4-yl]phenyl}-1H-1,2,3-triazol-1-yl)ethoxy]ethoxy}ethoxy)ethyl]urea}hydrochloride], the IC50 is 0.0033 µM.

For `CN1Cc2c(Cl)cc(Cl)cc2[C@H](c2cccc(-c3cn(CCOCCOCCOCCNC(=O)NCCCNC(=O)NCCOCCOCCOCCn4cc(-c5cccc([C@@H]6CN(C)Cc7c(Cl)cc(Cl)cc76)c5)nn4)nn3)c2)C1` [Example 7-35, 1,1′-Propane-1,3-diylbis {3-[2-(2-{2-[2-(4-{3-[(4S)-6,8-dichloro-2-methyl-1,2,3,4-tetrahydroisoquinolin-4-yl]phenyl}-1H-1,2,3-triazol-1-yl)ethoxy]ethoxy}ethoxy)ethyl]urea}hydrochloride], the IC50 amounted to 0.0044 µM.

Regarding `CN1Cc2c(Cl)cc(Cl)cc2[C@H](c2cccc(-c3cn(CCOCCOCCOCCNC(=O)NCCOCCOCCOCCn4cc(-c5cccc([C@@H]6CN(C)Cc7c(Cl)cc(Cl)cc76)c5)nn4)nn3)c2)C1` [Example 7-36, 1,3-Bis[2-(2-{2-[2-(4-{3-[(4S)-6,8-dichloro-2-methyl-1,2,3,4-tetrahydroisoquinolin-4-yl]phenyl}-1H-1,2,3-triazol-1-yl)ethoxy]ethoxy}ethoxy)ethyl]urea hydrochloride], the IC50 was determined as 0.0214 µM.

Take `CN1Cc2c(Cl)cc(Cl)cc2[C@H](c2cccc(-c3cn(CCOCCOCCOCCNC(=O)NCCOCCNC(=O)NCCOCCOCCOCCn4cc(-c5cccc([C@@H]6CN(C)Cc7c(Cl)cc(Cl)cc76)c5)nn4)nn3)c2)C1` [Example 7-37, 1,1′-(Oxydiethane-2,1-diyl)bis{3-[2-(2-{2-[2-(4-{3-[(4S)-6,8-dichloro-2-methyl-1,2,3,4-tetrahydroisoquinolin-4-yl]phenyl}-1H-1,2,3-triazol-1-yl)ethoxy]ethoxy}ethoxy)ethyl]urea}hydrochloride]: the IC50 is 0.0066 µM.

Consider `CN1Cc2c(Cl)cc(Cl)cc2[C@H](c2cccc(-c3cnc(NCCOCCOCCOCCNC(=O)NCCCCNC(=O)NCCOCCOCCOCCNc4ncc(-c5cccc([C@@H]6CN(C)Cc7c(Cl)cc(Cl)cc76)c5)cn4)nc3)c2)C1` [Example 7-38, 1,1′-Butane-1,4-diylbis(3-{2-[2-(2-{2-[(5-{3-[(4S)-6,8-dichloro-2-methyl-1,2,3,4-tetrahydroisoquinolin-4-yl]phenyl}pyrimidin-2-yl)amino]ethoxy}ethoxy)ethoxy]ethyl}urea) hydrochloride], for which the IC50 was 0.0038 µM.

With `CN1Cc2c(Cl)cc(Cl)cc2C(c2cccc(-c3ccnc(NCCOCCOCCNC(=O)Nc4ccc(NC(=O)NCCOCCOCCNc5cc(-c6cccc(C7CN(C)Cc8c(Cl)cc(Cl)cc87)c6)ccn5)cc4)c3)c2)C1` (stereo not shown) [Example 7-41, 1,1′-Benzene-1,4-diylbis[3-(2-{2-[2-({4-[3-(6,8-dichloro-2-methyl-1,2,3,4-tetrahydroisoquinolin-4-yl)phenyl]pyridin-2-yl}amino)ethoxy]ethoxy}ethyl)urea]trifluoroacetate], the IC50 came out at 5.52 µM.

`CN1Cc2c(Cl)cc(Cl)cc2[C@H](c2cccc(-c3ccc(NCCOCCOCCNC(=O)CCC(=O)NCCOCCOCCNc4ccc(-c5cccc([C@@H]6CN(C)Cc7c(Cl)cc(Cl)cc76)c5)cn4)nc3)c2)C1` [Example 8-1, N,N′-Bis[2-(2-{2-[(5-{3-[(4S)-6,8-dichloro-2-methyl-1,2,3,4-tetrahydroisoquinolin-4-yl]phenyl}pyridin-2-yl)amino]ethoxy}ethoxy)ethyl]butanediamide hydrochloride]: the IC50 is 0.0149 µM.

Take `CN1Cc2c(Cl)cc(Cl)cc2[C@H](c2cccc(-c3ccc(NCCOCCOCCNC(=O)[C@H](O)[C@@H](O)C(=O)NCCOCCOCCNc4ccc(-c5cccc([C@@H]6CN(C)Cc7c(Cl)cc(Cl)cc76)c5)cn4)nc3)c2)C1` [Example 8-2, (2R,3R)-N,N′-Bis[2-(2-{2-[(5-{3-[(4S)-6,8-dichloro-2-methyl-1,2,3,4-tetrahydroisoquinolin-4-yl]phenyl}pyridin-2-yl)amino]ethoxy}ethoxy)ethyl]-2,3-dihydroxybutanediamide hydrochloride]: the IC50 is 0.0107 µM.

In the case of `CN1Cc2c(Cl)cc(Cl)cc2[C@H](c2cccc(-c3ccc(NCCOCCOCCNC(=O)CCCCC(=O)NCCOCCOCCNc4ccc(-c5cccc([C@@H]6CN(C)Cc7c(Cl)cc(Cl)cc76)c5)cn4)nc3)c2)C1` [Example 8-3, N,N′-Bis[2-(2-{2-[(5-{3-[(4S)-6,8-dichloro-2-methyl-1,2,3,4-tetrahydroisoquinolin-4-yl]phenyl}pyridin-2-yl)amino]ethoxy}ethoxy)ethyl]hexanediamide hydrochloride], the IC50 was determined as 0.0132 µM.

For the compound `CN1Cc2c(Cl)cc(Cl)cc2[C@H](c2cccc(-c3ccc(NCCOCCOCCNC(=O)c4ccccc4C(=O)NCCOCCOCCNc4ccc(-c5cccc([C@@H]6CN(C)Cc7c(Cl)cc(Cl)cc76)c5)cn4)nc3)c2)C1` [Example 8-4, N,N′-Bis[2-(2-{2-[(5-{3-[(4S)-6,8-dichloro-2-methyl-1,2,3,4-tetrahydroisoquinolin-4-yl]phenyl}pyridin-2-yl)amino]ethoxy}ethoxy)ethyl]benzene-1,2-dicarboxamide hydrochloride], the IC50 was determined as 0.115 µM.

As for `CN1Cc2c(Cl)cc(Cl)cc2[C@H](c2cccc(-c3cn(CCOCCOCCOCCNC(=O)[C@H](O)[C@@H](O)C(=O)NCCOCCOCCOCCn4cc(-c5cccc([C@@H]6CN(C)Cc7c(Cl)cc(Cl)cc76)c5)nn4)nn3)c2)C1` [Example 8-5, (2R,3R)-N,N′-Bis[2-(2-{2-[2-(4-{3-[(4S)-6,8-dichloro-2-methyl-1,2,3,4-tetrahydroisoquinolin-4-yl]phenyl}-1H-1,2,3-triazol-1-yl)ethoxy]ethoxy}ethoxy)ethyl]-2,3-dihydroxybutanediamide hydrochloride], the IC50 was 0.0028 µM.

The record behind these values is US9932331B2, “Phenyl tetrahydroisoquinoline compound substituted with heteroaryl” (TAISHO PHARMACEUTICAL CO., LTD, priority 2014, dated 2018).
